In article PMC3609710 (Journal of chromatography. A, 2012):
Where two headings read alike, the source gives them in different places.

Type: in vivo, mouse (C57Bl/6)
Settings: mouse serum, single IP injection of T1AM 25 mg/kg

| SMILES | serum concentration (10 minutes post-injection) | serum concentration (20 minutes post-injection) | greatest serum concentration (at 6 hours post-injection) |
| --- | --- | --- | --- |
| NCCc1ccc(Oc2ccc(O)cc2)c(I)c1 [T1AM, 3-Iodothyronamine] | 16.6 ± 8.5 µM | 5.6 ± 3.1 µM | – |
| O=C(O)Cc1ccc(Oc2ccc(O)cc2)cc1 [TA0, thyroacetic acid] | – | – | 0.77 ± 0.16 µM |
| O=C(O)Cc1ccc(Oc2ccc(O)cc2)c(I)c1 [TA1, 3-iodothyroacetic acid] | 17.7 ± 4.6 µM | 23.5 ± 13.2 µM | – |
